Results taken from patent publication US20180052105A1, “SULFANE SULFUR-SELECTIVE FLUORESCENT PROBE” (The University of Tokyo, priority 2015, published 2018).

Experiments:
[1] = Absorption and fluorescence spectra of the probe after addition of Na2S4 in buffer; settings: 1 μM probe, 0.1 M sodium phosphate buffer pH 7.4, 300 μM GSH
Method: Na2S4 was added to compound 8 synthesized as described above, and the absorption spectrum (UV-1650PC, Shimadzu) and fluorescence spectrum (F-4500, Hitachi) were measured.
(§1) The excitation wavelength was 470 nm.
Na2S4 was added to the synthesized compound a1, compound a2, and compound 25, which was obtained by deprotecting compound a4, and the absorption and fluorescence spectra were measured.

[2] = Reversibility of SSip-1 (in vitro assay in the presence of 5 mM of GSH); settings: 1 μM probe, pH 7.4, 5 mM GSH
Method: Reversibility of SSip-1 (In Vitro Assay in the Presence of 5 mM of GSH)
The existence of a response to sulfane sulfur was studied in the presence of 5 mM of GSH, which is the GSH concentration in cells (FIG. 4).
as §1

[3] = Selectivity with H2S (addition of NaHS); settings: 0.1 μm of SSip-1, pH 7.4, 300 μM GSH, 50 μM NaHS, excitation 470 nm
Source text: as §1

[4] = test system: A549 cells; assay: Live cell imaging (confocal microscope) with Na2S4 added; format: cell-based
Method: The SSip-1 DA was introduced into A549 cells, and 500 μM of Na2S4 was added outside the cells under a microscope. The A549 cells were incubated for three hours by 10 μM of SSip-1 DA (containing 0.0003% Purulonic and 1% DMSO as a co-solvent). The excitation wavelength was 488 nm, and the emission wavelengths were 500-570 nm and 590-650 nm. […]

[5] = test system: cells; assay: Localization in cells, co-staining with Lysotracker or Mitotracker; format: cell-based
Method: The localization in cells was studied using compound a3. […] The cells were incubated for one hour by 10 μM of compound a3 and 50 nM of Lysotracker Deep red or 200 nM of Mitotracker Deep red in DMEM (containing 0.03% Purulonic and 0.1% DMSO as a co-solvent). Ex/Em=488 nm (laser intensity 20%)/500-540 nm (PMT1000) and 650 nm/670-700 nm (PMT600)

[6] = A549 cells incubated 3 h with 10 μM SSip-1 DA, 500 μM Na2S4 added, excitation 488 nm

SSip-1
change in absorbance on the rhodamine side ([1]; after 50 μM Na2S4): decrease in absorbance on the rhodamine side
rise in fluorescence intensity ([1]; after 50 μM Na2S4, excitation 470 nm): approximately 10 fold
fluorescence after addition of Na2S4 ([2]; 50 μM Na2S4, excitation 470 nm): the fluorescence rose after addition of Na2S4
reversibility (fluorescence on repeated Na2S4 addition) ([2]; Na2S4 added again): showing reversibility
rise in fluorescence intensity with H2S donor [3]: virtually no rise in fluorescence intensity
intensity of the fluorescein-derived fluorescence wavelength region (500-570 nm) [4, 6]: increased
intensity of the rhodamine-derived fluorescence wavelength region (590-650 nm) [4, 6]: decreased slightly
time for fluorescence to decrease after washout ([4]; A549 live cells, after washout of 250 μM Na2S4): about 20 minutes
time for fluorescence to rise after Na2S4 addition ([4]; A549 live cells, repeated addition of 250 μM Na2S4): within one minute
merging with Lysotracker and Mitotracker ([5]; cells incubated 1 h with 10 μM compound a3 and 50 nM Lysotracker Deep red or 200 nM Mitotracker Deep red in DMEM): did not merge with Lysotracker and Mitotracker
localization in cells ([5]; in comparison to the localization when only SSip-1 was loaded): localized in the mitochondria
